Reference: patent US12304916B2, “Thienopyridinyl and thiazolopyridinyl compounds useful as IRAK4 inhibitors” (BRISTOL-MYERS SQUIBB COMPANY, priority 2019, dated 2025)

Legend:
IRAK4 = IRAK4 (Homo sapiens (Human), UniProt Q9NWZ3); assay: IRAK4 Inhibition Assay; format: biochemical; conditions: ATP 500 μM; IRAK4 0.6 nM; 60 min at room temperature
Experimental: The assays were performed in U-bottom 384-well plates. The final assay volume was 30 μL prepared from 15 μL additions of enzyme and substrates (fluoresceinated peptide and ATP) and test compounds in assay buffer (20 mM HEPES pH 7.2, 10 mM MgCl2, 0.015% Brij 35 and 4 mM DTT). The reaction was initiated by the combination of IRAK4 with substrates and test compounds. The reaction mixture was incubated at room temperature for 60 min. and terminated by adding 45 μL of 35 mM EDTA to each sample. The reaction mixture was analyzed on the Caliper LABCHIP® 3000 (Caliper, Hopkinton, MA) by electrophoretic separation of the fluorescent substrate and phosphorylated product. Inhibition data were calculated by comparison to no enzyme control reactions for 100% inhibition and vehicle-only reactions for 0% inhibition. The final concentrations of reagents in the assays are ATP, 500 μM; FL-IPTSPITTTYFFFKKK peptide 1.5 μM; IRAK4, 0.6 nM; and DMSO, 1.6%.

[1] = system: IL-6 levels in human whole blood stimulated with a TLR2 agonist (lipoteichoic acid); assay: IRAK4 Whole Blood Assay; format: cell-based; conditions: 10 μg/mL lipoteichoic acid for 5 hours, IL-6 readout
Experimental: Human whole blood containing the anti-coagulant ACD-A was plated in 384-well plate (25 μL/well) and incubated with compounds for 60 minutes at 37° C. in a 5% CO2 incubator. The blood was stimulated with a TLR2 agonist, 10 μg/mL final concentration of lipoteichoic acid (Invivogen, San Diego, CA) in 25 μL RPMI (Gibco) for 5 hours in a 5% CO2 incubator. At the end of the incubation, plates were centrifuged at 2300 rpm for 5 minutes. Supernatants were harvested and analyzed for IL-6 levels by Flow Cytometry beads assay (BD Biosciences, San Jose, CA).

IRAK4, sequence (Q9NWZ3 whole entry, species assumed): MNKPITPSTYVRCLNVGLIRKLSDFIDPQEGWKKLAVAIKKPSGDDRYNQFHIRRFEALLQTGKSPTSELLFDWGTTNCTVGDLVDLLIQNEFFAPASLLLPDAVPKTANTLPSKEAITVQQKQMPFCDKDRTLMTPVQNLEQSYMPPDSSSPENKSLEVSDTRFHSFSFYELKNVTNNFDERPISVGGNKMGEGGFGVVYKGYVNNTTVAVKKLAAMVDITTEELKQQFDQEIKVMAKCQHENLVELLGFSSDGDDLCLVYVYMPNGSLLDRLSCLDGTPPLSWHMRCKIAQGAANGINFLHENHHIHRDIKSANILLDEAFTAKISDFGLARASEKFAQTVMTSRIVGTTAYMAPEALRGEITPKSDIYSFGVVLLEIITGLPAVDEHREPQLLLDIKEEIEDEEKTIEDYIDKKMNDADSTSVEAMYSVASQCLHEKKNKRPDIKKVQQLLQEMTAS

| IC50 (IRAK4) | EC50 [1] | SMILES |
| --- | --- | --- |
| 10.3 nM | > 20000 nM | CC(C)Nc1c(C(=O)NC[C@@H](F)C(C)(C)O)cnc2sc(-c3ccnnc3)cc12 [Example 32, (R)-N-(2-fluoro-3-hydroxy-3-methylbutyl)-4-(isopropylamino)-2-(pyridazin-4-yl)thieno[2,3-b]pyridine-5-carboxamide] |
| 12.3 nM | 5040 nM | CC(C)Nc1c(C(=O)N[C@H]2CC[C@H](N)CC2)cnc2sc(-c3cncs3)cc12 [Example 38, N-((1r,4r)-4-aminocyclohexyl)-4-(isopropylamino)-2-(thiazol-5-yl)thieno[2,3-b]pyridine-5-carboxamide] |
| 12.2 nM | > 20000 nM | CC(C)Nc1c(C(=O)NCc2ncn[nH]2)cnc2sc(-c3cncs3)cc12 [Example 42, N-((1H-1,2,4-triazol-5-yl)methyl)-4-(isopropylamino)-2-(thiazol-5-yl)thieno[2,3-b]pyridine-5-carboxamide] |
| 17.1 nM | > 20000 nM | CCOCCNC(=O)c1cnc2sc(-c3cncs3)cc2c1NC(C)C [Example 43, N-(2-ethoxyethyl)-4-(isopropylamino)-2-(thiazol-5-yl)thieno[2,3-b]pyridine-5-carboxamide] |
| 8.2 nM | 660 nM | CC(C)Nc1c(C(=O)NCCC(C)(C)O)cnc2sc(-c3cncs3)cc12 [Example 44, N-(3-hydroxy-3-methylbutyl)-4-(isopropylamino)-2-(thiazol-5-yl)thieno[2,3-b]pyridine-5-carboxamide] |
| 9.3 nM | 5310 nM | COC(=O)N[C@H]1CC[C@H](NC(=O)c2cnc3sc(-c4cncs4)cc3c2NC(C)C)CC1 [Example 50, methyl ((1r,4r)-4-(4-(isopropylamino)-2-(thiazol-5-yl)thieno[2,3-b]pyridine-5-carboxamido)cyclohexyl)carbamate] |
| 15.1 nM | 3650 nM | CC(C)(O)[C@H](F)CNC(=O)c1cnc2sc(-c3cncs3)cc2c1NC1COC1 [Example 53, (R)-N-(2-fluoro-3-hydroxy-3-methylbutyl)-4-(oxetan-3-ylamino)-2-(thiazol-5-yl)thieno[2,3-b]pyridine-5-carboxamide] |
| 6 nM | > 10000 nM | CC(C)Nc1c(C(=O)NC[C@@H](F)C(C)(C)O)cnc2sc(-c3cnc(N)s3)cc12 [Example 56, (R)-2-(2-aminothiazol-5-yl)-N-(2-fluoro-3-hydroxy-3-methylbutyl)-4-(isopropylamino)thieno[2,3-b]pyridine-5-carboxamide] |
| 8.2 nM | 3540 nM | Cc1ncc(-c2cc3c(NC(C)C)c(C(=O)NC[C@@H](F)C(C)(C)O)cnc3s2)s1 [Example 57, (R)-N-(2-fluoro-3-hydroxy-3-methylbutyl)-4-(isopropylamino)-2-(2-methylthiazol-5-yl)thieno[2,3-b]pyridine-5-carboxamide] |
| 3.8 nM | 190 nM | CC(C)Nc1c(C(=O)NC[C@@H](F)C(C)(C)O)cnc2sc(-c3ccc(=O)[nH]c3)cc12 [Example 59, (R)-N-(2-fluoro-3-hydroxy-3-methylbutyl)-4-(isopropylamino)-2-(6-oxo-1,6-dihydropyridin-3-yl)thieno[2,3-b]pyridine-5-carboxamide] |
| 10.8 nM | > 10000 nM | CC(O)CCNC(=O)c1cnc2sc(-c3cncs3)cc2c1NC(C)C (stereo not drawn) [Example 60, N-(3-hydroxybutyl)-4-(isopropylamino)-2-(thiazol-5-yl)thieno[2,3-b]pyridine-5-carboxamide] |
| 5.4 nM | 2340 nM | CC(C)Nc1c(C(=O)NCCC2(O)CC(F)(F)C2)cnc2sc(-c3cncs3)cc12 [Example 63, N-(2-(3,3-difluoro-1-hydroxycyclobutyl)ethyl)-4-(isopropylamino)-2-(thiazol-5-yl)thieno[2,3-b]pyridine-5-carboxamide] |
| 10.9 nM | > 20000 nM | CC(C)Nc1c(C(=O)NCCN2CCS(=O)(=O)CC2)cnc2sc(-c3cncs3)cc12 [Example 68, N-(2-(1,1-dioxidothiomorpholino)ethyl)-4-(isopropylamino)-2-(thiazol-5-yl)thieno[2,3-b]pyridine-5-carboxamide] |
| 5.2 nM | > 20000 nM | CC(C)Nc1c(C(=O)NCCc2ccncc2)cnc2sc(-c3ccc(=O)[nH]c3)cc12 [Example 71, 4-(isopropylamino)-2-(6-oxo-1,6-dihydropyridin-3-yl)-N-(2-(pyridin-4-yl)ethyl)thieno[2,3-b]pyridine-5-carboxamide] |
| 6.7 nM | > 20000 nM | CC(C)Nc1c(C(=O)NCCc2cccnc2)cnc2sc(-c3ccc(=O)[nH]c3)cc12 [Example 72, 4-(isopropylamino)-2-(6-oxo-1,6-dihydropyridin-3-yl)-N-(2-(pyridin-3-yl)ethyl)thieno[2,3-b]pyridine-5-carboxamide] |
| 8.8 nM | > 20000 nM | CC(C)Nc1c(-c2cn(CC3CC3)nn2)cnc2sc(-c3cncs3)cc12 [Example 78, 5-(1-(cyclopropylmethyl)-1H-1,2,3-triazol-4-yl)-N-isopropyl-2-(thiazol-5-yl)thieno[2,3-b]pyridin-4-amine] |
| 2.3 nM | > 10000 nM | CC(C)Nc1c(-c2cn(CCCO)nn2)cnc2sc(-c3cncs3)cc12 [Example 79, 3-(4-(4-(isopropylamino)-2-(thiazol-5-yl)thieno[2,3-b]pyridin-5-yl)-1H-1,2,3-triazol-1-yl)propan-1-ol] |
| 5.2 nM | 420 nM | CC(C)Nc1c(-c2cn(CCCO)nn2)cnc2sc(-c3ccc(=O)[nH]c3)cc12 [Example 80, 5-(5-(1-(3-hydroxypropyl)-1H-1,2,3-triazol-4-yl)-4-(isopropylamino)thieno[2,3-b]pyridin-2-yl) pyridin-2(1H)-one] |
